These results are taken from patent publication US10800785B2, “Substituted pyrrolo[2,3-d]pyridazin-4-ones and pyrazolo[3,4-d]pyridazin-4-ones as protein kinase inhibitors” (Shanghai Fochon Pharmaceutical Co., Ltd., priority 2016, dated 2020).

What is called IC50 is the point on the concentration scale where inhibition reaches its midpoint. Read a low IC50 as higher potency.

The test system of the test is DOHH2 cells. The test can be described thus: Cell proliferation assay (MTS) in DOHH2 cells, mechanism-based assay for BTK inhibition. As to conditions: Homo sapiens, DOHH-2, 120 h incubation, 5000 cells/well. The text has this:
Cell Proliferation Assays
MTS testing kit was purchased from Promega. The DMEM, Fetal bovine serum and Penicillin-Streptomycin were purchased from Gibco. Dimethyl sulfoxide (DMSO) was purchased from Sigma.
To investigate whether a compound is able to inhibit the activity of BTK in cells, a mechanism-based assay using DOHH2 (DSMZ catalog#: ACC47) and Mino (ATCC® Number CRL-3000™) cells was developed. In this assay, inhibition of BTK was detected by the inhibition of DOHH2 and Mino cell proliferations. DOHH2 or Mino cells were cultured in culture flasks to 40-80% confluence in RPMI-1640 plus 10% fetal bovine serum. C ells were collected and plated onto 96-well plates at desired cell density (DOHH2: 5000 cells/well; Mino: 10000 cells/well). Plates were incubated overnight at 37° C., with 5% CO2 to adhere. Compounds were added to the plates, and the final compound concentrations were 10000, 3333, 1111, […], 41, 14, 4.6 and 1.5 nM. Plates were placed at 37° C., with 5% CO2 for 120 h (DOHH2) or 72 h (Mino). 20 μl MTS/100 μl medium mixture solution were added to each well and the plates were incubated for exactly 2 hours. The reaction was stopped by adding 25 μl 10% SDS per well.
Select compounds prepared as described above were assayed according to the biological procedures described herein.

`C=CC(=O)N1CC[C@@H](c2nn(-c3ccc(C(=O)Nc4ccccn4)cc3)c3c(N)n[nH]c(=O)c23)C1` [Example 90, (R)-4-(3-(1-acryloylpyrrolidin-3-yl)-7-amino-4-oxo-4,5-dihydro-1H-pyrazolo[3,4-d]pyridazin-1-yl)-N-(pyridin-2-yl)benzamide] showed an IC50 of 580 nM. In other words, the sub-micromolar range.
`CN1CC[C@@H]1/C=C/C(=O)N1CCC[C@@H](c2cn(-c3ccc(Oc4ccccc4)cc3)c3c(N)n[nH]c(=O)c23)C1` [Example 107, 7-amino-3-((S)-1-((E)-3-((R)-1-methylazetidin-2-yl)acryloyl)piperidin-3-yl)-1-(4-phenoxyphenyl)-1,5-dihydro-4H-pyrrolo[2,3-d]pyridazin-4-one] registered an IC50 of 737 nM.
The value for `C=CC(=O)N1CCC(c2cn(-c3ccc(Oc4ccccc4)cc3)c3c(N)n[nH]c(=O)c23)CC1` [Example 112, 3-(1-acryloylpiperidin-4-yl)-7-amino-1-(4-phenoxyphenyl)-1,5-dihydro-4H-pyrrolo[2,3-d]pyridazin-4-one] was 78 nM; that for `C=CC(=O)N1CCC[C@@H](c2cn(-c3ccc(Oc4ccc(F)cc4)cc3)c3c(N)n[nH]c(=O)c23)C1` [Example 31, (S)-3-(1-acryloylpiperidin-3-yl)-7-amino-1-(4-(4-fluorophenoxy)phenyl)-1,5-dihydro-4H-pyrrolo [2,3-d]pyridazin-4-one] was 167 nM.
As for `C=CC(=O)N1CC[C@@H](c2nn(-c3ccc(Oc4ccccc4F)cc3)c3c(N)n[nH]c(=O)c23)C1` [Example 41, (R)-3-(1-acryloylpyrrolidin-3-yl)-7-amino-1-(4-(2-fluorophenoxy)phenyl)-1,5-dihydro-4H-pyrazolo[3,4-d]pyridazin-4-one], the IC50 stood at 146 nM.
The value for `CC#CC(=O)N1CC[C@@H](c2nn(-c3ccc(Oc4ccccc4)cc3)c3c(N)n[nH]c(=O)c23)C1` [Example 65, (R)-7-amino-3-(1-(but-2-ynoyl)pyrrolidin-3-yl)-1-(4-phenoxyphenyl)-1,5-dihydro-4H-pyrazolo[3,4-d]pyridazin-4-one] was 505 nM.
Consider `C=CC(=O)N1CCC[C@H](c2cn(-c3ccc(Oc4c(F)cccc4F)cc3)c3c(N)n[nH]c(=O)c23)C1` [Example 39, (R)-3-(1-acryloylpiperidin-3-yl)-7-amino-1-(4-(2,6-difluorophenoxy)phenyl)-1,5-dihydro-4H-pyrrolo[2,3-d]pyridazin-4-one], for which half-maximal inhibition (IC50) was put at 31 nM.
The value for `C=CC(=O)N1CCC(c2nn(-c3ccc(Oc4c(F)cccc4F)cc3)c3c(N)n[nH]c(=O)c23)C1` (stereo not drawn) [Example 7, 3-(1-acryloylpyrrolidin-3-yl)-7-amino-1-(4-(2,6-difluorophenoxy)phenyl)-1,5-dihydro-4H-pyrazolo[3,4-d]pyridazin-4-one] was 182 nM.
As for `C=CC(=O)N1CC[C@@H](c2cn(-c3ccc(Oc4ccccc4F)cc3)c3c(N)n[nH]c(=O)c23)C1` [Example 17, (S)-3-(1-acryloylpyrrolidin-3-yl)-7-amino-1-(4-(2-fluorophenoxy)phenyl)-1,5-dihydro-4H-pyrrolo[2,3-d]pyridazin-4-one], the figure is 21 nM; as for `C=CC(=O)N1CCC[C@H](c2nn(-c3ccc(Oc4ccccc4)cc3)c3c(N)n[nH]c(=O)c23)C1` [Example 16, (S)-3-(1-acryloylpiperidin-3-yl)-7-amino-1-(4-phenoxyphenyl)-1,5-dihydro-4H-pyrazolo[3,4-d]pyridazin-4-one], 37 nM; as for `COC/C=C/C(=O)N1CC[C@@H](c2cn(-c3ccc(Oc4ccccc4F)cc3)c3c(N)n[nH]c(=O)c23)C1` [Example 92, (S,E)-amino-1-(4-(2-fluorophenoxy)phenyl)-3-(1-(4-methoxybut-2-enoyl)pyrrolidin-3-yl)-1,5-dihydro-4H-pyrrolo[2,3-d]pyridazin-4-one], 649 nM.
`CC#CC(=O)N1CCC[C@@H](c2cn(-c3ccc(Oc4c(F)cccc4F)cc3)c3c(N)n[nH]c(=O)c23)C1` [Example 87, (S)-7-amino-3-(1-(but-2-ynoyl)piperidin-3-yl)-1-(4-(2,6-difluorophenoxy)phenyl)-1,5-dihydro-4H-pyrrolo[2,3-d]pyridazin-4-one] had an IC50 of 265 nM.
